# From patent US5498624A, “Selected pyrazolyl derivatives” (Monsanto Company, priority 1995, dated 1996)
# Like-named read-outs stand apart in the source and are kept apart here.
# Experiments:
# [1] = test system: Erysiphe graminis f. sp. tritici; test: Wheat Powdery Mildew Foliar Assay (WPM Prot); assay type: in vivo
# Description: A) Pathogen/Inoculum Production--Leaf material infected with the wheat powdery mildew fungus, Erysiphe graminis f. sp. tritici, is maintained continuously on wheat seedlings, cv. Caldewell.
# (B) Host Propagation, (C) Compound Preparation and (D) Compound Application follow as per Example 1.
# (E) Inoculation/Incubation--Inoculation of the test plants takes place 24 hours after compound application. Inoculation is accomplished by gently shaking plants previously infected with the Erysiphe graminis f. sp. tritici fungus over the test plants. This process liberates a cloud of spores which effectively and uniformly fall onto the test plants. After inoculation the plants are returned to the environmental conditions under which they were grown.
# (F) Evaluation and (G) Data follow as per Example 1. The percent protection values for the compounds of the present invention are as set out in the Table below.
# [2] = test system: Pseudocercosporella herpotrichoides var. tritici; test: Wheat True Eyespot In Vitro Assay (WES In Vitro); assay type: cell-based; set-up: key: 0: no inhibition of mycelial growth; 1: slight inhibition of mycelial growth; 2: moderate inhibition of mycelial growth; 3: strong inhibition of mycelial growth; conditions: 3 days at 19° C.
# Description: A) Pathogen/Inoculum Production--A mycelial transfer of Pseudocercosporella herpotrichoides var. tritici is placed onto potato dextrose agar plates and allowed to grow for 40 days at 20 ° C., without light. Five agar discs are taken from the actively growing culture and are placed equidistant, mycelial side down, onto a water agar plate, and incubated at 10 ° C. with 10 hours of fluorescent light per day. After 5 days of incubation, sporulation on the transferred discs begins, and plates are flooded with 3-5 mls sterile deionized water. One-half ml aliquots are taken from the resulting spore suspension and placed on new water agar plates. Spores are spread across plates using a bent glass rod and incubated at 10 ° C. with 10 hour fluorescent light periods per day. In 5-10 days, a lawn of spores is produced and can be "harvested".
# B) Compound Preparation and Test Execution--200 μl of 1/4 strength potato dextrose broth is placed in each well of a 96 well microtiter plate. […] The commercial standard used is prochloraz at equivalent rates.
# C) Inoculation/Incubation--50 μl of a 1×10^6 spores/ml suspension harvested using the method above is added to each well. The 96 well plates are incubated for 3 days at 19° C. in the dark.
# (§1) D) Evaluation--After incubation, each well is visually assessed for growth inhibition on the following 0-3 scale:
# (§2) 0=no inhibition of mycelial growth
# (§3) 1=slight inhibition of mycelial growth
# (§4) 2=moderate inhibition of mycelial growth
# (§5) 3=strong inhibition of mycelial growth
# Succinate Dehydrogenase = test: Enzyme Inhibition I-50 (WGB): Succinate Dehydrogenase Assay using Septoria nodorum mitochondria; assay type: biochemical
# Description: Succinate Dehydrogenase Assay using Septoria nodorum mitochondria--Septorianodorum mycelia are prepared from spores via shake culture for 40-48 hours in 3% malt extract at room temperature. The mycelia are harvested by centrifugation and the pellets obtained are stored in the -80° C. freezer until use.
# Mitochondria are isolated by a method adapted from White (Biochem. Biophys. Res. Commun. 44 (1971) 1212-19). Fifteen to twenty grams of frozen mycelia are resuspended in a 250 mL medium containing 0.25M sucrose, 5 mM tetrasodium ethylenediamine tetraacetic acid (Na4 EDTA), pH 7.0 containing 1.5 g/liter bovine serum albumin (BSA) and placed in a Bead Beater chamber (BioSpec Products, Bartlesville, Okla.). Zirconium oxide beads (0.5 mm) are added to finish filling the chamber. Four 30s beats separated by 2 rain temperature equilibration periods on ice are used to break the mycelia. The homogenate is centrifuged for 20 min at 3000×g and 4° C. to remove debris. The supernatant is recentrifuged at 20,000×g for 20 min at 4° C. The resulting pellet is resuspended in BSA-free sucrose/EDTA medium (40 mL) using a glass tissue homogenizer and teflon pestle and recentrifuged at 27,000×g for 15 min at 4° C. The pellet is resuspended in BSA-free sucrose/EDTA medium (~3 mL) and used for SDH assays.
# The enzyme activity is measured at […] in a solution containing 50 mM potassium phosphate, pH7.2; 1 mM potassium cyanide; 45 μM 2,6-dichlorophenol indophenol (DCPIP) and 17 mM disodium succinate in a final volume of 1 mL with a Perkin-Elmer Lambda 7 ultraviolet-visible spectrophotometer. The test compounds are added as acetone solutions (final concentration of acetone less than or equal to 1%(v/v)). The mitochondrial preparations are used to initiate the reaction. All rates are corrected for succinate-independent dye reduction. Semilog plots of percentage inhibition versus test compound concentration are used to determine inhibition expressed as I50 (μM) which is the concentration required to inhabit the rate of DCPIP reduction by 50%. The commercial fungicide carboxin is used as a standard throughout [I50 (μM)=5.0±2.2; n=52].
# Septoria nodorum [3] = test: Wheat Glume Blotch (WGB) In Vitro; assay type: cell-based; set-up: key: 0: no inhibition of mycelial growth; 1: slight inhibition of mycelial growth; 2: moderate inhibition of mycelial growth; 3: strong inhibition of mycelial growth; conditions: 4-6 days at 25° C.
# Description: A) Pathogen/Inoculum Production--The wheat glume blotch fungus, Septoria nodorum, is cultured on yeast/malt agar at 22° C. and 12 hours fluorescent light. Several sterile loops full of mature pycnidia produced on a 7 day old culture plates are added to 30 mls of 1/4 strength potato dextrose broth. After 15 minutes the suspension is stirred, and adjusted to a concentration of 3×10^5 spores/mi.
# B) Compound Preparation and Test Execution--200 μl of 1/4 strength potato dextrose broth is placed in each well of a 96 well microtiter plate. […] The commercial standard used is flusilazole, at equivalent rates.
# C) Inoculation/Incubation--50 μl of a 3×10^5 spores/ml suspension obtained using the method above is added to each well. The 96-well plate is incubated for 4-6 days at 25° C., 12 hours fluorescent light.
# as §1, §2, §3, §4, §5
# Septoria nodorum [4] = test: Wheat Glume Blotch Foliar Assay, protectant (WGB Prot); assay type: in vivo; conditions: 10 ppm, application two days pre-inoculation
# Description: A) Host Propagation--Winter wheat plants, cv. Caldwell, are grown in 5.7 cm^2 pots, three per pot, and maintained in a growth chamber set at 20° C., 80% RH with a 12 hour photoperiod.
# B) Compound Preparation--A 1.0% stock solution of each of the compounds of the present invention is first prepared utilizing an appropriate solvent such as acetone, water or DMSO. This stock is then used to prepare the final spray solution which contains the compound at the desired dosage, eg 100 ppm and 20 ppm, acetone at 20% v/v, Tween®20 at .05% w/v, and water at about 80%. Commercial standard used is tebuconazole at equivalent rates.
# C) Compound Application, Seedlings are sprayed at the two-leaf stage (GS 12) using a DeVilbiss Model 152 hand operated sprayer set at 15-20 psi. Six ml of the test solution per treatment are applied to three pots. In the protectant assay (EXAMPLE 8), the compound application is made two days pre-inoculation. In the curative assay (EXAMPLE 9), the compound is applied during a brief interruption of the disease incubation period two days post-inoculation.
# D) Pathogen Production/Inoculation--The wheat glume blotch fungus, Septoria nodorum, is maintained in the pycnidial state on yeast malt agar (YMA) and transferred weekly by streaking a suspension of conidia obtained from a ten to twelve day old sporulating culture onto fresh YMA plates. The plates are incubated at 20° C. with a 12 hour photoperiod.
# Test inoculum is prepared by flooding seven day old culture plates with deionized water amended with Tween®20 (0.1% v/v) and gently scraping the pycnidia to release the extruding masses of conidia. The resulting spore suspension is filtered through two layers of cheese cloth and adjusted to 4×10^6 spores/ml utilizing the Tween®20 solution.
# Forty-eight hours after the compound application and prior to inoculation, the test plants are preconditioned for at least one hour in a dark growth chamber set at 20° C. and 100% RH. After the preconditioning period is over, the conidial suspension is applied to run-off using a DiVilbiss hand operated sprayer. The plants are then returned to the preconditioning chamber and incubated at the same settings for 96 hours. Light is supplied to the plants during the last twelve hours of incubation. At the end of the 96 hour period, the plants are returned to the environmental conditions under which they were grown.
# E) Test Evaluation--Eight to ten days after removal from the high humidity chamber, or twelve to fourteen days after inoculation, treatments are evaluated by visually estimating the percentage of the leaf area (on the first leaf) covered with lesions. Three ratings are made on each pot which constitutes a replicate. Each replicate then receives a numerical mean by averaging the three values. Percent disease, as well as percent control values are calculated. The percent control values obtained from these assays for the compounds of the present invention are as set out in the Table below.
# [5] = test system: Botrytis cinerea Mitochondria; conditions: 1 μM concentration; cited from earlier work
compound,measurement,setting,value
"CCO[C@H]1CC[C@H](c2ccccc2NC(=O)c2cn(C)nc2C(F)F)CC1 [Number 7, 1H-pyrazole-4-carboxamide, 3-(difluoromethyl)-N-[2-(4-ethoxycyclohexyl)phenyl]-1-methyl-,trans-]",WPM Prot percent disease control,[1]; 500 ppm foliar protectant,96%
same,WES In vitro growth inhibition 0-3 scale,[2]; 0.1 ppm,0
same,WES In vitro growth inhibition 0-3 scale,[2]; 0.5 ppm,0
same,WES In vitro growth inhibition 0-3 scale,[2]; 5.0 ppm,1
same,IC50,"Succinate Dehydrogenase; DCPIP reduction, read-out: WGB enzyme I-50",170 nM
same,WGB In Vitro growth inhibition 0-3 scale,Septoria nodorum [3]; 0.1 ppm,0
same,WGB In Vitro growth inhibition 0-3 scale,Septoria nodorum [3]; 0.5 ppm,0
same,WGB In Vitro growth inhibition 0-3 scale,Septoria nodorum [3]; 5.0 ppm,1
Cn1cc(C(=O)Nc2ccccc2C2CCC(C(F)(F)F)CC2)c(C(F)F)n1 (stereo not drawn) [Number 8],WPM Prot percent disease control,[1]; 10 ppm foliar protectant,91%
same,WGB Prot percent control,Septoria nodorum [4],85%
"CC1=C(C(=O)Nc2ccccc2)SCCO1 [carboxin, reference compound]",IC50,"Succinate Dehydrogenase; standard throughout, n=52, read-out: I50",5000 ± 2200 nM
same,respiratory inhibition,[5],68%
